Source: paper PMC5584945, “Evaluation of robenidine analog NCL195 as a novel broad-spectrum antibacterial agent” (PLoS ONE, 2017)

Legend:
S. pneumoniae = test: MIC, broth micro-dilution (CLSI); format: cell-based, Streptococcus pneumoniae; conditions: for MIC / MIC50 / MIC90: Streptococcus pneumoniae
S. pneumoniae D39 = test: Membrane potential, DiOC2(3) fluorescence; format: cell-based, Streptococcus pneumoniae; conditions: 16 μg/ml, pre-incubated 5 min; versus untreated and ampicillin
Protocol: (§1) To further examine the mechanism underlying the perturbation of the cell membrane of S. pneumoniae or S. aureus by the NCL compounds, the membrane potential of the cells was measured by fluorescence spectrometry using (DiOC2(3), essentially as described previously. Briefly, […] cells from an overnight HBA plate were grown in Todd-Hewitt broth supplemented with 1% yeast extract (THY) at 37°C, 5% CO2 until A600 nm = 0.5. […] The cuvette was then placed in a LS 55 Fluorescence Spectrometer (PerkinElmer) set at Ex. 488 nm/Em. 620 nm, with excitation and emission slit widths at 5 nm and 7 nm, respectively). […] All assays were performed at least twice.

S. aureus ATCC49775 = test: Membrane potential, DiOC2(3) fluorescence; format: cell-based, Staphylococcus aureus; conditions: 16 μg/ml, pre-incubated 5 min; versus untreated and ampicillin
Protocol: as §1

[1] = Microsomal metabolic stability; format: in vitro ADME; conditions: pH 7.4; for microsomal CLint at 0.4 μg/ml / half-life at 0.4 μg/ml: microsomes; for half-life at 0.4 μg/ml: 0.4 μg/ml compound, 0.4 mg/ml protein, NADPH
Protocol: The metabolic stability assay was performed by incubating 0.4 μg/ml of each test compound with human and mouse liver microsomes (Xenotech, Lot# 1210057 and 1310211, respectively) suspended in 0.1 M pH 7.4 phosphate buffer at 37°C and 0.4 mg/ml protein concentration. The metabolic reaction was initiated by the addition of an NADPH-regenerating system (i.e. NADPH is the cofactor required for CYP450-mediated metabolism) and quenched at various time points over a 60 min incubation period by the addition of acetonitrile containing diazepam as internal standard. Control samples (containing no NADPH) were included (and quenched at 2, 30 and 60 min) to monitor for potential degradation in the absence of cofactor. Test compound concentration vs time data were fitted to an exponential decay function to determine the first-order rate constant for substrate depletion. This was used to calculate a degradation half-life (T1/2), in vitro intrinsic clearance (CLINT), microsome-predicted blood clearance (CLblood) and a microsome-predicted hepatic extraction ratio (EH) according to the in vitro half-life method of Obach[53].

human red blood cells = test: Haemolysis assay; format: cell-based; conditions: 1 h, 37°C; highest concentration used 128 μg/ml
Protocol: This was performed using fresh donor human red blood cells (RBCs), essentially as described previously. Fresh RBCs were washed in PBS three times at 500 × g for 5 min, and then resuspended 1% (w/v) in PBS. […] Thereafter, 198 μL of the 1% RBC solution was added into each well, and the mixture incubated for 1 h at 37°C, with shaking at 100 rpm. Quadruplicate wells containing either 1% Triton X100, or PBS only, served as controls. After incubation, the trays were centrifuged at 1,000 × g for 3 min and 100 μl of supernatant from each well transferred into a new 96-well tray. Absorbance was measured at A450 nm on a Multiskan Ascent 354 Spectrophotometer (Labsystems) and plotted against each dilution. Haemolytic titer was determined as the reciprocal of the dilution at which 50% of erythrocytes were lysed at A450 nm. The experiment was performed twice.

MDBK = test: In vitro cytotoxicity, WST-1; format: cell-based, bovine; conditions: Bos taurus, 24 h exposure, read-out: IC50 values ± SEM
Source text: In order to ensure minimal off target mammalian cell cytotoxicity, we assayed NCL812, NCL195 and NCL219 for in vitro cytotoxicity using a panel of adherent mammalian cell lines: Caco-2 (human colorectal adenocarcinoma cell line), HEL 299 (non-cancerous human lung fibroblast cell line), Hep G2 (human hepatocellular carcinoma cell line), MDBK (normal bovine kidney cell line) and MCF7 (human mammary gland adenocarcinoma cell line). Cell lines were maintained in Dulbecco’s Modified Eagle’s Medium (DMEM; […] After 24 h incubation, media was removed, washed once with medium without antibiotics and fresh medium supplemented with 10% (vol/vol) FBS was added. […] Following exposure for 24 h, WST-1 reagent was added to each well at a final concentration of 10%. […] The IC50 value for each compound against each cell line was determined via non-linear regression (three parameters) using GraphPad Prism v6 software. The robustness of assays was confirmed with selected cell lines (Hep G2 and MDBK) seeded onto a 96–well Microwell Nunclon Delta Surface plate (Thermo Scientific Nunc; Cat No: 136101) at 5 × 10^4 cells per well.

Q: For Cl.N=C(NN=Cc1ccc(Cl)cc1)NN=Cc1ccc(Cl)cc1 [NCL812, 2,2'-bis[(4-chlorophenyl)methylene] carbonimidic dihydrazide hydrochloride], which MIC range (S. pneumoniae; 21 isolates) is on record?
A: 2 to 8 µg/mL

Q: And the MIC range (S. pneumoniae; S1 Table isolates, 5% FBS + 3% washed RBC)?
A: 4 to 8 µg/mL

Q: What about the MIC range (S. pneumoniae; S1 Table isolates, 10% FBS + 3% washed RBC) of the same compound?
A: 2 to 8 µg/mL

Q: What about the MIC (S. pneumoniae; A66.1 (serotype 3), 5% FBS) of the same compound?
A: 4 µg/mL

Q: What about the MIC (S. pneumoniae; A66.1 (serotype 3), 10% FBS) of the same compound?
A: 4 µg/mL

Q: What about the MIC (S. pneumoniae; ATCC6303, ATCC 6303 (serotype 3), 5% FBS + 3% washed RBC) of the same compound?
A: 4 µg/mL

Q: What about the MIC (S. pneumoniae; ATCC6303, ATCC 6303 (serotype 3), 10% FBS + 3% washed RBC) of the same compound?
A: 4 µg/mL

Q: And the MIC (S. pneumoniae; D39/D39LUX (serotype 2), 5% FBS)?
A: 8 µg/mL

Q: What about the MIC (S. pneumoniae; D39/D39LUX (serotype 2), 10% FBS) of the same compound?
A: 8 µg/mL

Q: And the MIC (S. pneumoniae; EF3030 (serotype 19F), 5% FBS)?
A: 8 µg/mL

Q: What about the MIC (S. pneumoniae; EF3030 (serotype 19F), 10% FBS) of the same compound?
A: 8 µg/mL

Q: And the MIC (S. pneumoniae; L82016 (serotype 6B), 5% FBS)?
A: 4 µg/mL

Q: And the MIC (S. pneumoniae; L82016 (serotype 6B), 10% FBS)?
A: 4 µg/mL

Q: And the MIC (S. pneumoniae; P9 (serotype 6A), 5% FBS)?
A: 4 µg/mL

Q: What about the MIC (S. pneumoniae; P9 (serotype 6A), 10% FBS) of the same compound?
A: 4 µg/mL

Q: What about the MIC (S. pneumoniae; P21 (serotype 3), 5% FBS) of the same compound?
A: 4 µg/mL

Q: What about the MIC (S. pneumoniae; P21 (serotype 3), 10% FBS) of the same compound?
A: 4 µg/mL

Q: What about the MIC50 (S. pneumoniae; S1 Table isolates, 5% FBS) of the same compound?
A: 4 µg/mL

Q: And the MIC90 (S. pneumoniae; S1 Table isolates, 5% FBS)?
A: 8 µg/mL

Q: What about the MIC50 (S. pneumoniae; S1 Table isolates, 10% FBS) of the same compound?
A: 4 µg/mL

Q: What about the MIC90 (S. pneumoniae; S1 Table isolates, 10% FBS) of the same compound?
A: 8 µg/mL

Q: What about the MIC (S. pneumoniae; TIGR4 (serotype 4), 5% FBS) of the same compound?
A: 4 µg/mL

Q: What about the MIC (S. pneumoniae; TIGR4 (serotype 4), 10% FBS) of the same compound?
A: 4 µg/mL

Q: What about the MIC (S. pneumoniae; WCH16 (serotype 6A), 5% FBS) of the same compound?
A: 4 µg/mL

Q: What about the MIC (S. pneumoniae; WCH16 (serotype 6A), 10% FBS) of the same compound?
A: 8 µg/mL

Q: And the MIC (S. pneumoniae; WCH43 (serotype 4), 5% FBS)?
A: 4 µg/mL

Q: What about the MIC (S. pneumoniae; WCH43 (serotype 4), 10% FBS) of the same compound?
A: 4 µg/mL

Q: What about the MIC (S. pneumoniae; WCH46 (serotype 4), 5% FBS) of the same compound?
A: 4 µg/mL

Q: What about the MIC (S. pneumoniae; WCH46 (serotype 4), 10% FBS) of the same compound?
A: 4 µg/mL

Q: What about the MIC (S. pneumoniae; WCH57 (serotype 8), 5% FBS) of the same compound?
A: 4 µg/mL

Q: What about the MIC (S. pneumoniae; WCH57 (serotype 8), 10% FBS) of the same compound?
A: 4 µg/mL

Q: And the MIC (S. pneumoniae; WCH77 (serotype 5), 5% FBS)?
A: 4 µg/mL

Q: What about the MIC (S. pneumoniae; WCH77 (serotype 5), 10% FBS) of the same compound?
A: 2 µg/mL

Q: And the MIC (S. pneumoniae; WCH86 (serotype 4), 5% FBS)?
A: 4 µg/mL

Q: What about the MIC (S. pneumoniae; WCH86 (serotype 4), 10% FBS) of the same compound?
A: 8 µg/mL

Q: And the MIC (S. pneumoniae; WCH89 (serotype 7), 5% FBS)?
A: 4 µg/mL

Q: What about the MIC (S. pneumoniae; WCH89 (serotype 7), 10% FBS) of the same compound?
A: 8 µg/mL

Q: What about the MIC (S. pneumoniae; WCH92 (serotype 4), 5% FBS) of the same compound?
A: 4 µg/mL

Q: And the MIC (S. pneumoniae; WCH92 (serotype 4), 10% FBS)?
A: 4 µg/mL

Q: What about the MIC (S. pneumoniae; WCH137 (serotype 6A), 5% FBS) of the same compound?
A: 4 µg/mL

Q: What about the MIC (S. pneumoniae; WCH137 (serotype 6A), 10% FBS) of the same compound?
A: 4 µg/mL

Q: What about the MIC (S. pneumoniae; WCH158 (serotype 19F), 5% FBS) of the same compound?
A: 4 µg/mL

Q: And the MIC (S. pneumoniae; WCH158 (serotype 19F), 10% FBS)?
A: 4 µg/mL

Q: And the MIC (S. pneumoniae; WCH184 (serotype 19F), 5% FBS)?
A: 4 µg/mL

Q: And the MIC (S. pneumoniae; WCH184 (serotype 19F), 10% FBS)?
A: 4 µg/mL

Q: And the MIC (S. pneumoniae; WCH211 (serotype 11), 5% FBS)?
A: 4 µg/mL

Q: And the MIC (S. pneumoniae; WCH211 (serotype 11), 10% FBS)?
A: 4 µg/mL

Q: And the MIC (S. pneumoniae; WU2 (serotype 3), 5% FBS)?
A: 8 µg/mL

Q: What about the MIC (S. pneumoniae; WU2 (serotype 3), 10% FBS) of the same compound?
A: 8 µg/mL

Q: What about the “Effect on generated membrane potential” value (S. pneumoniae D39) of the same compound?
A: large reduction in the magnitude of the generated membrane potential

Q: And the “Effect on generated membrane potential” value (S. aureus ATCC49775)?
A: large reduction in the magnitude of the generated membrane potential

Q: And the “Predicted CLblood” value ([1]; human, 0.4 μg/ml)?
A: <5 mL/min/kg

Q: What about the microsomal CLint at 0.4 μg/ml ([1]; human) of the same compound?
A: < 7 µL/min/mg

Q: What about the half-life at 0.4 μg/ml ([1]; human) of the same compound?
A: > 4.12 h

Q: What about the half-life at 0.4 μg/ml ([1]; mouse) of the same compound?
A: > 4.12 h

Q: And the “Predicted CLblood” value ([1]; mouse, 0.4 μg/ml)?
A: <16 mL/min/kg

Q: And the “Predicted EH” value ([1]; mouse, 0.4 μg/ml)?
A: <0.13

Q: And the microsomal CLint at 0.4 μg/ml ([1]; mouse)?
A: < 7 µL/min/mg

Q: And the “50% haemolysis titre (HC50)” value (human red blood cells)?
A: 24 µg/mL

Q: And the IC50 (MDBK)?
A: 5.9 ± 0.1 µg/mL
